Experimental findings from patent publication US3937695A, “P-Glu-Trp-Ser-Tyr-D-Lys-Leu-Arg-Pro-Gly-NH2 and intermediates” (American Home Products Corporation, priority 1974, dated 1976) are described below.

Where a SMILES comes first, the peptide text is derived from it. [ ]: non-standard residue; d: D form. pGlu = O=C1CC[C@@H](C(=O)O)N1

For this test, the system named is ovulation in female rats. Put plainly: Anti-ovulatory test in proestrous female rats. It counts as in vivo, Sprague-Dawley rats. Here is the method:
In vivo tests were conducted with female rats (225 to 250 grams body weight). […] The test was conducted with mature Sprague-Dawley rats, unanesthetized, proestrous rats. On the afternoon of proestrous, each rat in the test group received six subcutaneous injections of the acetate salt of formula I in corn oil, each injection being given a half hour following the previous injection. The rats are sacrificed the next morning and the number of animals ovulating and the number of ova shed are recorded following the procedure described by E. S. France, Neuroendocrinology 6, pp 77-89 (1970). The absence of or a significant decrease in the number of ova is the criterion for an anti-ovulation effect.

Take `CC(C)C[C@H](NC(=O)[C@@H](CCCCN)NC(=O)[C@H](Cc1ccc(O)cc1)NC(=O)[C@H](CO)NC(=O)[C@H](Cc1c[nH]c2ccccc12)NC(=O)[C@@H]1CCC(=O)N1)C(=O)N[C@@H](CCCNC(=N)N)C(=O)N1CCC[C@H]1C(=O)NCC(N)=O` [Example 3, L-Pyroglutamyl-L-tryptophyl-L-seryl-L-tyrosyl-D-lysyl-L-leucyl-L-arginyl-L- prolyl-glycinamide] ([pGlu]WSY[dK]LRPG-NH2): for the setting “1 mg per injection, six subcutaneous injections in corn oil, half an hour apart, on the afternoon of proestrous, rats sacrificed next morning”, the Inhibition of ovulation entry was “complete inhibition of ovulation”. Also, under “mature unanesthetized proestrous female Sprague-Dawley rats (225 to 250 g), dose of about 24 mg/kg, subcutaneous in corn oil”, the Ovulation inhibition result is “all of the rats tested”.
